Values quoted from earlier work as cited in patent US20080102144A1, “FAT BETA-OXIDATION ENHANCING AND CARBOHYDRATE ABSORPTION INHIBITION SUPPLEMENT” (priority 2006, published 2008).
Where two headings read alike, the source gives them in different places. One block for each compound: values may come before it.

Legend:
[1] = mice
[2] = tested on: carnitine palmitoyltransferase; conditions: 0.5% and 1.0% supplemented diets after 6 days
[3] = tested on: 3T3-preadipocyte cells
[4] = tested on: hepatic glucose-6-phosphate (G-6-P); conditions: rate-limiting step in gluconeogenesis
[5] = 16 weeks, versus triacylglycerol
[6] = human studies, as opposed to triacylglycerol, no increase in energy expenditure

Compound: Cn1c(=O)c2c(ncn2C)n(C)c1=O [caffeine]
total serum triglyceride levels [1]: decreased

carnitine palmitoyltransferase activity in the liver [2]: did not enhance
Compound: O=C(/C=C/c1ccc(O)c(O)c1)O[C@@H]1C[C@](O)(C(=O)O)C[C@@H](O)[C@H]1O [chlorogenic acid]
cell cycle phase of proliferation arrest ([3]; 3T3-preadipocyte cells): G1 phase
proliferation of 3T3-preadipocyte cells ([3]; addition to 3T3-preadipocyte tissue cultures): inhibited the proliferation in both and a time- and dose-dependant manner
inhibition of hepatic glucose-6-phosphate (G-6-P) [4]: selectively inhibit

Compound: diacylglycerol
body mass index [5]: significant decrease
body weight [5]: significant decrease
total fat area as assessed by CT scan [5]: significantly reduced
waist circumference [5]: significant decrease
hepatic fat oxidation (after a single dose, compared to triacylglycerol): significant increase
β-oxidation of fatty acids (animal studies, compared against triacylglycerol): increase
glucose-6-phophate dehydrogenase, malic enzyme, fatty acid synthase and fatty acid synthesis (rats fed diacylglycerol): lower
mitochondrial and peroxisome oxidation of palmtoyl-CoA in liver homogenates (rats fed diacylglycerol): increased
β-oxidation of fatty acids [6]: increase
